Drawing on US8815909B2, “Diaminocyclohexane compounds and uses thereof” (Bristol-Myers Squibb Company, priority 2011, dated 2014), this text covers EC50 for 46 molecules.

Each structure is given as a SMILES string.

T1 sequence (P50391 whole entry): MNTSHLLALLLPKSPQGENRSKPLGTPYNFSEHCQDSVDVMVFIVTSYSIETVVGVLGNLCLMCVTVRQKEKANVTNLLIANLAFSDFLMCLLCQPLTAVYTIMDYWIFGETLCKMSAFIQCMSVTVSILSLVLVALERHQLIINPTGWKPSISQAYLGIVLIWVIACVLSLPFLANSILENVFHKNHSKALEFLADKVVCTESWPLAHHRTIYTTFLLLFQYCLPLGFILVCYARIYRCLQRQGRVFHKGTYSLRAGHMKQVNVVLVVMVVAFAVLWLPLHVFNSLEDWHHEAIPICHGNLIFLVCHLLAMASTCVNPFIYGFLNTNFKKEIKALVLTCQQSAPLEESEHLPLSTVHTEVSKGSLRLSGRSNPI

The first assay addresses T1, human Y4 receptor (Homo sapiens, UniProt P50391).
T1 construct: expressed in transfected cells
Nature of the assay: NPY4 cAMP HTRF Agonist Assay (inhibitory cAMP assay, Gi activation by Y4 agonism). It counts as cell-based. To be noted: TABLE 2, R2 is Phenyl-CN; read-out: hY4 CAMP EC50. The method, boiled down:
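Y4 agonism read as lowered forskolin-stimulated cAMP (HTRF, 1 h detection at room temperature). Stable human Y4 CHO clone, 5000 cells/well, incubated 30 min at room temperature with compounds plus forskolin and IBMX in PBS.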
On the technique in general: In TR-FRET formats the signal depends on donor and acceptor labels being close together.
On to `N#Cc1ccc(N2C[C@@H]3C[C@H](N[C@@H]4CCCC[C@H]4Nc4ncc(-c5ccccc5F)o4)[C@H]2C3)cc1` [Example 223], for which the EC50 (in general, the midpoint of the concentration-response curve) came out at 5 nM. Same read-out and setting: as for `CC(=O)NCc1cccc(-c2ccnc(N[C@@H]3CCCC[C@H]3N[C@H]3CCCN(c4ccc(C#N)cc4)C3)c2)c1` [Example 244], the figure is 7 nM; as for `N#Cc1ccc(N2CCC[C@H](N[C@@H]3CCCC[C@H]3Nc3cc(-c4ccccc4O)ccn3)C2)cc1` [Example 276], 120 nM; as for `N#Cc1ccc(N2CCC[C@H](N[C@@H]3CCCC[C@H]3Nc3ncc(-c4ccccc4OC(F)(F)F)o3)C2)cc1` [Example 226], 5 nM. `N#Cc1ccc(N2C[C@@H]3C[C@H](N[C@@H]4CCCC[C@H]4Nc4cc(-c5ccccc5)ccn4)[C@H]2C3)cc1` [Example 232]: the EC50 came out at 37 nM. The same measure, in the same setting: the figure for `CC(C)(C)c1cccc(-c2ccnc(N[C@@H]3CCCC[C@H]3N[C@H]3CCCN(c4ccc(C#N)cc4)C3)c2)c1` [Example 259] is 59 nM. Still for that read-out and setting: the figure for `COc1cccc(-c2ccnc(N[C@@H]3CCCC[C@H]3N[C@H]3CCCN(c4ccc(C#N)cc4)C3)c2)c1` [Example 263] is 87 nM; for `COC(=O)Nc1cccc(-c2ccnc(N[C@@H]3CCCC[C@H]3N[C@H]3CCCN(c4ccc(C#N)cc4)C3)c2)c1` [Example 201] it is 5 nM; for `N#Cc1ccc(N2CCC[C@H](N[C@@H]3CCCC[C@H]3Nc3cc(-c4cc(C#N)cs4)ccn3)C2)cc1` [Example 269] it is 223 nM. Same read-out and setting: as for `CS(=O)(=O)c1cccc(-c2ccnc(N[C@@H]3CCCC[C@H]3N[C@H]3CCCN(c4ccc(C#N)cc4)C3)c2)c1` [Example 254], the figure is 381 nM. In the case of `N#Cc1ccc(N2CCC[C@H](N[C@@H]3CCCC[C@H]3Nc3cc(-c4cccc(Cl)c4)ccn3)C2)cc1` [Example 250], the EC50 worked out at 559 nM. The same measure, in the same setting: the figure for `N#Cc1ccc(N2C[C@@H]3C[C@H](N[C@@H]4CCCC[C@H]4Nc4cc(-c5cccc(O)c5)ccn4)[C@H]2C3)cc1` [Example 228] is 1 nM.

The assay is the same for the next values; noted with them: TABLE 4, R2 is Pyridinyl-CN; read-out: hY4 CAMP EC50.
With `CC(C)(O)c1cccc(-c2ccnc(N[C@@H]3CCCC[C@H]3NC3CCCN(c4ccc(C#N)nc4)C3)c2)c1` (stereo partly shown) [Example 314], the EC50 amounted to 67 nM. The same measure, in the same setting: the figure for `N#Cc1ccc(N2CCC[C@H](N[C@@H]3CCCC[C@H]3Nc3ncc(-c4cccc(C(N)=O)c4)o3)C2)cn1` [Example 305] is 7 nM.

The assay is the same for the next values; noted with them: TABLE 5, R2 is Pyridinyl-CF3; read-out: hY4 CAMP EC50.
Regarding `NC(=O)c1cccc(-c2cnc(N[C@@H]3CCCC[C@H]3N[C@H]3C[C@@H]4C[C@H]3N(c3ccc(C(F)(F)F)cn3)C4)o2)c1` [Example 326], the EC50 was found to be 9 nM. Consider `NC(=O)c1cccc(-c2ccnc(N[C@@H]3CCCC[C@H]3N[C@H]3CCCN(c4ccc(C(F)(F)F)nc4)C3)c2)c1` [Example 321], for which the EC50 is 16 nM.

Staying with this assay, now noted: TABLE 7, R2 is Pyridinyl-oxadiazole-CH3; read-out: hY4 CAMP EC50.
For `Cc1nc(-c2ccc(N3CCC[C@H](N[C@@H]4CCCC[C@H]4Nc4ncc(-c5cccc(C(=O)O)c5)o4)C3)cn2)no1` [Example 384], the EC50 was determined as 606 nM. On to `Cc1nc(-c2ccc(N3CCC[C@H](N[C@@H]4CCCC[C@H]4Nc4ncc(-c5ccc(OC(F)(F)F)cc5)o4)C3)nc2)no1` [Example 392], for which the EC50 amounted to 194 nM.

The same assay, now with this note: human Y4 receptor, cAMP; read-out: hY4 CAMP EC50.
For `Cc1nc2ccc(N3CCC[C@H](N[C@@H]4CCCC[C@H]4Nc4ncc(-c5cc(F)c(F)c(F)c5)o4)C3)cn2n1` [Example 498], the EC50 came out at 63 nM. Still for that read-out and setting: as for `Cn1nnc(-c2ccc(N3C[C@@H]4C[C@H](N[C@@H]5CCCC[C@H]5Nc5cc(-c6cccc(C(N)=O)c6)ccn5)[C@H]3C4)cc2)n1` [Example 460], the figure is 4 nM. Still for that read-out and setting: the figure for `Cc1nnc(-c2ccc(N3CCC[C@H](N[C@@H]4CCCC[C@H]4Nc4cc(-c5cccc(S(N)(=O)=O)c5)ccn4)C3)cc2)o1` [Example 377] is 93 nM. Regarding `Nc1cccc(-c2cnc(N[C@@H]3CCCC[C@H]3N[C@H]3CCCN(c4cnc(C(F)(F)F)nc4)C3)o2)c1` [Example 412], the EC50 worked out at 69 nM.

For the molecule `CNC(=O)c1cccc(-c2cnc(N[C@@H]3CCCC[C@H]3N[C@H]3CCCN(c4cnc(C(F)(F)F)nc4)C3)o2)c1` [Example 409], the EC50 amounted to 4 nM. On the same count and under the same terms, as for `NC(=O)c1cccc(-c2cnc(N[C@@H]3CCCC[C@H]3N[C@H]3C[C@@H]4C[C@H]3N(c3cnc(C(F)(F)F)cn3)C4)o2)c1` [Example 470], the figure is 162 nM; as for `NC(=O)c1cccc(-c2cnc(N[C@@H]3CCCC[C@H]3N[C@H]3CCCN(c4ccc(F)c(F)c4)C3)o2)c1` [Example 454], 3 nM.

As for `NC(=O)c1cccc(-c2ccnc(N[C@@H]3CCCC[C@H]3N[C@H]3CCCN(c4ccc5ncnn5c4)C3)c2)c1` [Example 481], the EC50 was found to be 34 nM. As for `NC(=O)c1cccc(-c2cnc(N[C@@H]3CCCC[C@H]3N[C@H]3CCCN(c4ccc5ncnn5c4)C3)o2)c1` [Example 480], the EC50 worked out at 17 nM. Same read-out and setting: the figure for `Cc1nc(-c2ccc(N3C[C@@H]4C[C@H](N[C@@H]5CCCC[C@H]5Nc5ncc(-c6ccc(OC(F)(F)F)cc6)o5)[C@H]3C4)cc2)no1` [Example 351] is 448 nM. On the same count and under the same terms, the figure for `CCNC(=O)Nc1cccc(-c2cnc(N[C@@H]3CCCC[C@H]3N[C@H]3CCCN(c4cnc(C(F)(F)F)nc4)C3)o2)c1` [Example 417] is 6 nM. Consider `N#Cc1ccc(N2C[C@@H]3C[C@H](N[C@@H]4CCCC[C@H]4Nc4ncc(-c5ccc(OC(F)(F)F)cc5)o4)[C@H]2C3)nn1` [Example 443], for which the EC50 was determined as 482 nM. On the same count and under the same terms, the figure for `CCOC(=O)Nc1cccc(-c2cnc(N[C@@H]3CCCC[C@H]3N[C@H]3CCCN(c4ccc(-c5noc(C)n5)cc4)C3)o2)c1` [Example 340] is 3 nM.

The same assay, now with this note: human Y4 stable CHO clonal cells, forskolin + IBMX; read-out: NPY4 cAMP HTRF Agonist Assay EC50.
As for `O=[N+]([O-])c1ccc(N2C[C@@H]3C[C@H](N[C@@H]4CCCC[C@H]4Nc4ncc(-c5ccc(OC(F)(F)F)cc5)o4)[C@H]2C3)cc1` [Example 5, (1R,2R)—N1-((1R,4R,6S)-2-(4-Nitrophenyl)-2-azabicyclo[2.2.1]heptan-6-yl)-N2-(5-(4-(trifluoromethoxy)phenyl)oxazol-2-yl)cyclohexane-1,2-diamine], the EC50 is 9 nM. The same measure, in the same setting: the figure for `N#Cc1ccc(N2CCC[C@H](N[C@@H]3CCCC[C@H]3Nc3ncc(-c4ccccc4)o3)C2)cc1` [Example 57, 4-((S)-3-((1R,2R)-2-(5-Phenyloxazol-2-ylamino)cyclohexylamino)piperidin-1-yl)benzonitrile] is 25 nM; for `N#Cc1ccc(N2CCC[C@H](N[C@@H]3CCCC[C@H]3Nc3ncc(-c4ccc(OC(F)(F)F)cc4)o3)C2)c(F)c1` [Example 52, 3-Fluoro-4-((S)-3-((1R,2R)-2-(5-(4-(trifluoromethoxy)phenyl)oxazol-2-ylamino)cyclohexylamino)piperidin-1-yl)benzonitrile] it is 193 nM. Still for that read-out and setting: as for `FC(F)(F)Oc1ccc(-c2cnc(N[C@@H]3CCCC[C@H]3N[C@H]3CCCN(c4ccc(OC(F)(F)F)cc4)C3)o2)cc1` [Example 87, (1R,2R)—N1-(5-(4-(Trifluoromethoxy)phenyl)oxazol-2-yl)-N2-((S)-1-(4-(trifluoromethoxy)phenyl)piperidin-3-yl)cyclohexane-1,2-diamine], the figure is 185 nM; as for `CCOC(=O)Nc1cccc(-c2cnc(N[C@@H]3CCCC[C@H]3N[C@H]3CCCN(c4ccc(C(F)(F)F)cc4)C3)o2)c1` [Example 101, Ethyl (3-(2-((1R,2R)-2(S)-1-(4-trifluoromethyl)phenylpiperidin-3-ylamino)cyclohexylamino)oxazol-5-yl)phenylcarbamate], 2 nM. The same measure, in the same setting: the figure for `O=[N+]([O-])c1ccc(N2CCC[C@H](N[C@@H]3CCCC[C@H]3Nc3nnc(-c4ccccc4)o3)C2)cc1` [Example 27, (1R,2R)—N1-((S)-1-(4-Nitrophenyl)piperidin-3-yl)-N2-(5-phenyl-1,3,4-oxadiazol-2-yl)cyclohexane-1,2-diamine] is 60 nM; for `N#Cc1ccc(N2CCC[C@H](N[C@@H]3CCCC[C@H]3Nc3ncc(-c4cccc(F)c4)o3)C2)cc1` [Example 35, 4-((S)-3-((1R,2R)-2-(5-(3-Fluorophenyl)oxazol-2-ylamino)cyclohexylamino)piperidin-1-yl)benzonitrile] it is 42 nM.

The assay is the same for the next values; noted with them: second TABLE 1, R2 is Phenyl-CF3; read-out: hY4 CAMP EC50.
As for `C[C@@H](O)c1cccc(-c2ccnc(N[C@@H]3CCCC[C@H]3N[C@H]3CCCN(c4ccc(C(F)(F)F)cc4)C3)c2)c1` [Example 168], the EC50 stood at 14 nM.

As to `FC(F)(F)Oc1ccc(-n2nnc(N[C@@H]3CCCC[C@H]3N[C@H]3CCCN(c4ccc(C(F)(F)F)cc4)C3)n2)cc1` [Example 121], the 50% effective concentration (EC50) came to 922 nM. Same read-out and setting: as for `CN(C)Cc1cccc(-c2ccnc(N[C@@H]3CCCC[C@H]3N[C@H]3CCCN(c4ccc(C(F)(F)F)cc4)C3)c2)c1` [Example 131], the figure is 1110 nM. The same measure, in the same setting: the figure for `CCCNC(=O)c1cccc(-c2ccnc(N[C@@H]3CCCC[C@H]3N[C@H]3CCCN(c4ccc(C(F)(F)F)cc4)C3)c2)c1` [Example 139] is 29 nM; for `OCCC#Cc1ccnc(N[C@@H]2CCCC[C@H]2N[C@H]2CCCN(c3ccc(C(F)(F)F)cc3)C2)c1` [Example 161] it is 31 nM; for `COC(=O)Nc1cccc(-c2ccnc(N[C@@H]3CCCC[C@H]3N[C@H]3CCCN(c4ccc(C(F)(F)F)cc4)C3)c2)c1` [Example 132] it is 3 nM. Still for that read-out and setting: the figure for `FC(F)(F)c1ccc(N2CCC[C@H](N[C@@H]3CCCC[C@H]3Nc3ncc(Br)cn3)C2)cc1` [Example 182] is 258 nM; for `FC(F)(F)c1ccc(N2CCC[C@H](N[C@@H]3CCCC[C@H]3Nc3cc4ccccc4cn3)C2)cc1` [Example 195] it is 48 nM.
